Experimental data from patent US10736906B2, “Method to enhance tissue regeneration” (CHILDREN'S MEDICAL CENTER CORPORATION, priority 2006, dated 2020).
Entries after “also recorded” stand apart in the source; their conditions may differ.

How the values were obtained:
adult zebrafish liver = assay: liver regeneration and wound healing after 1/3 partial hepatectomy in adult zebrafish; type: in vivo
Source text: Following ⅓ partial hepatectomy, the zebrafish liver regenerates within five days to seven days.
As many molecular pathways controlling embryonic development mediate tissue homeostasis in the adult, the effects of prostaglandin signaling during liver regeneration were examined. […] Fish were revived and allowed to heal in fish water.
To test the requirement of functional prostaglandin signaling during regeneration, fish were exposed to the dual-specific cox inhibitor, indomethacin, from hour 6 to hour 18 following partial hepatectomy.
Liver Resection: Folling administration of tricaine anesthetic, ⅓ partial hepaectomy of the adult zebrafish liver was performed under brightfield imaging on a dissection microscope. An incision was made using microdissection scissors posterior to the heart on the left lateral portion of the abdomen.

[1] = test system: endodermal and hepatic progenitor cells; assay: endodermal progenitors (foxA3) and liver size (lfabp) in zebrafish embryos, in situ hybridization; type: in vivo
Source text: To determine whether the interaction of PGE2 and wnt/β-catenin signaling is a conserved regulator of stem and progenitor cell populations in other tissues, endodermal and hepatic progenitor cells were examined during zebrafish development. […] ( 51/56), as detected by expression of liver fatty acid binding protein (lfabp). […] This finding is supported by the detection of various components of PGE2 signaling in foxA3 positive cells.
The APC mutant zebrafish to model constitutive activation of the wnt signaling pathway, was used to characterize the effects of the wnt/PG interaction in foxA3+ endodermal progenitors at 48 hpf. APC+/− embryos have enhanced foxA3 expression and an increased liver bud ( 88/93) as well as increased liver size ( 68/75) compared to wild-type siblings. […] Both cyclinD1 and cmyc were co-regulated by wnt and prostaglandin during development which may indicate that PGE2 exerts its effects on stem cells through enhanced cell cycling and proliferation.
(§1) In situ hybridization: Paraformaldehyde (PFA)-fixed embryos were processed for in situ hybridization using standard zebrafish protocols such as those found on the internet at, for example, ZFIN: The Zebrafish Model Organism Database (hosted by the Univ. Oregon, Eugene, Oreg.). The following RNA probes were used to detect alterations in endodermal and liver development: GFP, LFABP, sterol carrier protein, transferrin, foxA3, insulin, trypsin, and IFABP. Changes in expression compared to wild-type controls are reported as the # altered/# scored per genotype; a minimum of three independent experiments were conducted per analysis.

[2] = test system: cKit+Sca1+ Lineage- (KSL) bone marrow cells; assay: murine transplantation assay with purified HSCs, CFU-S12; type: in vivo, mice; conditions: concurrent administration with BIO; indomethacin 1 mg/kg and 2.5 mg/kg
Method: To assess whether prostaglandin levels regulate wnt activity in HSCs, murine transplantation assays were performed utilizing purified HSCs. FACS-isolated cKit+Sca1+ Lineage—(KSL) bone marrow cells were transplanted into lethally irradiated recipients.

[3] = test system: hematopoietic stem cells (HSCs); assay: HSC formation in zebrafish embryos (runx1, c-myb expression), with heat-shock inducible wnt modulators; type: in vivo
Method: The functional consequences of the PGE2/wnt interaction in HSC formation during embryonic development were analyzed by examining the expression of the HSC markers runx1 and c-myb. Heat shock induction of a canonical wnt ligand, wnt8, at ten somites led to enhanced HSC formation at 36 hours post fertilization (hpf; 47/54). When wnt8 induction was followed by exposure to indomethacin (10 μM, 16-36 hpf) HSC formation was reduced to or below wild-type levels ( 43/46).
Inducible negative regulators of wnt activity were used in combination with dmPGE2 treatment to functionally localize the interaction between the PG and wnt pathways. Dkk1 antagonizes the wnt pathway at the level of membrane binding and the initiation of the wnt signaling cascade. Dkk induction in hs:dkk1 transgenic embryos inhibited HSC development ( 34/49). Exposure to exogenous dmPGE2 rescued the dkk1-mediated effect on HSC formation ( 28/51, 10 μM, 16-36 hpf). Axin is a central component of the β-catenin destruction complex and thus a negative regulator of the wnt signaling cascade in the cytosolic compartment. […] Similarly, a dominant-negative form of the β-catenin transcriptional co-activator TCF abolished HSC formation ( 60/62), and no rescue was affected via dmPGE2 exposure.
The wnt pathway can actively enhance HSC proliferation through signaling from the HSC niche as well as within HSCs themselves. PGE2 regulates HSC formation at the level of the vascular niche as well as within the HSCs. North et al., 2007. In order to identify transcriptional programs regulated by the wnt signaling pathway, genes involved in HSC development were analyzed by qPCR.
The functional interaction of signaling processes in the zebrafish, down stream from PG, was explored by increasing camp production using forskolin and inhibiting PKA with H89. […] Furthermore, the rescue of dkk effects by dmPGE2 was eliminated by H89.
Heat shock activation/repression of wnt signaling: Embryonic heat-shock experiments were conducted at 38° C. for a duration of 20 minutes unless otherwise noted. Genotype was determined by the presence of GFP fluorescence at three hours post heat-induction, non-fluorescence (wild-type) siblings were used as controls.
as §1

β-catenin = assay: partial hepatectomy in wild-type and APCMin/+ mice (IHC, western blot, BrdU); type: in vivo
Source text: Here, APC mutation caused increased total and nuclear β-catenin levels, particularly in the periportal region. […] These findings were confirmed by western blot. β-catenin may cause increased cell proliferation through its target cyclin D1.
Additionally, the present invention provides the first example that the activation of wnt/β-catenin signaling can enhance the rate of liver regeneration. […] Furthermore, the regeneratice advantage is evolutionarily conserved following hepatectomy in APCMin/+ mice. (Murine liver resections were performed as described in Green & Puder, 16 J. Investigational Surgery 99-102 (2003). Thus, the present invention provides for the manipulation of the wnt/β-catenin pathway as a way to enhance liver regeneration in patients, either after liver resection or during recovery from acute liver failure induced by toxins such as acetaminophen.

wnt activity = wnt activity in TOP:dGFP wnt reporter zebrafish embryos (in situ hybridization and qPCR for GFP); type: in vivo; conditions: for wnt activity in the developing brain, liver and gut: developing zebrafish, TOP:dGFP
Source text: An embodiment of the present invention provides for manipulation of the genetic interaction between PGE2 and wnt/β-catenin signaling, which regulates developmental specification of stem cells and regeneration. Briefly, prostaglandin (PG) E2 is required for the formation and function of hematopoietic stem cells (HSCs) in vivo, yet its mechanism of action in these cells is not completely understood.
The following RNA probes were used to detect alterations in endodermal and liver development: GFP, LFABP, sterol carrier protein, transferrin, foxA3, insulin, trypsin, and IFABP. Changes in expression compared to wild-type controls are reported as the # altered/# scored per genotype; a minimum of three independent experiments were conducted per analysis.

COc1ccc2c(c1)c(CC(=O)O)c(C)n2C(=O)c1ccc(Cl)cc1 [indomethacin]
liver architecture (adult zebrafish liver; at resection margin and throughout un-injured portions): altered architecture of the liver | liver regrowth compared to controls (adult zebrafish liver; exposure following resection (indomethacin hour 6 to 18; day 1 and day 3)): significantly reduced liver re-growth | complete regeneration of the liver (adult zebrafish liver; indomethacin: by day 5 post-resection): failed to regenerate fully | wound healing at the incision site (adult zebrafish liver; skin wounds following partial hepatectomy): severely inhibited; also recorded: prohibited wound healing | regenerative index (adult zebrafish liver; treatment 6 to 18 hours post resection, wild-type and APC mutant fish): significantly diminished | β-catenin, immunohistochemistry post resection (adult zebrafish liver; wild-type and APC+/− fish): decrease in overall β-catenin levels | decrease in liver size (# altered/# scored) ([1]; APC+/− embryos): 61/67 | decrease in foxA3 positive progenitor cells (# altered/# scored) ([1]; APC+/− embryos, 48 hpf): 33/39 | decreased foxA3 expression (# altered/# scored) ([1]; wild-type embryos): 67/71 | smaller liver, lfabp expression (# altered/# scored) ([1]; wild-type embryos, 72 h.p.f.): 51/56 | liver size / liver development compared to controls ([1]; zebrafish embryos, by 72 hours post-fertilization): marked reduction in liver size | effect on BIO-enhanced CFU-S number [2]: blocks this effect; also recorded: diminished CFU-S number back to baseline levels | effects of wnt8/dkk1 induction on runx1, cmyb, flk1, ephB2 expression (qPCR) ([3]; indomethacin added to wnt8, dmPGE2 added to dkk1): could be modified | HSC formation reduced to or below wild-type levels after wnt8 induction (# altered/# scored) ([3]; wnt8 heat shock at ten somites, then 10 μM, 16-36 hpf): 43/46 | β-catenin levels (β-catenin; 2.5 mg/kg bid sq, both genotypes): decreased β-catenin levels significantly | Cyclin D1 levels and cell proliferation (BrdU incorporation) (β-catenin; APCMin/+ mice): markedly diminished | P-GSK3b (serine 9), IHC (β-catenin; wild-type and APC+/− mice, confirmed by western blot): decreased amounts | wnt activity in the developing brain, liver and gut (wnt activity): diminished wnt activity | wnt activity in the developing brain, liver and gut (wnt activity; listed as indomethicin): virtual absence of wnt signaling | wnt activity abolished in the AGM and GFP expression markedly decreased globally (# altered/# scored) (wnt activity; indomethacin 10 μM): 72/87
